This note sets out measurements from patent publication US8629144B2, “Polymorphic and hydrate forms, salts and process for preparing 6-{difluoro[6-(1-methyl-1H-pyrazol-4-yl)[1,2,4]triazolo[4,3-b]pyridazin-3-yl]methyl}quinoline” (Janssen Pharmaceutica NV, priority 2007, dated 2014).

The structures appear in SMILES notation. Values after ≈ are worked out from the molar mass of the structure shown. Read-outs that look alike come from different tables or passages of the source.

Series [1] can be described thus: Water adsorption (hygroscopicity) of salts of compound (I). Particulars: for Water adsorbed: dried 1 h at 25° C. under dry nitrogen flow. It is filed as physicochemical. On the procedure: Free base of compound (I) (3 g; 7.95 mmol) was dissolved in absolute ethanol (40 mL) and heated to 78° C. An acid (HCl 6M in 2-propanol, 2.0 ml (12 mmol); HBr 48% in water, 0.98 mL (8.75 mmol); methane sulphonic acid, 917 mg (9.54 mmol); ethane sulphonic acid, 1.05 g (9.54 mmol) or p-toluene sulphonic acid monohydrate (1.66 g (8.75 mmol)) was added to the hot reaction mixture. The reaction mixture was allowed to cool to room temperature. The resulting precipitate was filtered off, washed with ethanol and dried under vacuum at 60° C.
The obtained solids were analysed by acid titration, Karl-Fisher titration and HPLC. A physical characterisation was performed (DSC, TGA, XRD and IR, DVS).

A short description of series [2]: Absorption and plasma kinetics after oral administration of salts to rat. Particulars: male SD rats, oral 10 mg base eq./kg.
Protocol: (§1) Five male SD rats (225±11 g) were used per salt form. From each rat a complete plasma concentration time profile was obtained. Tap water and food were available ad libitum. The test involved salts of compound (I) with HBr, HCl, methanesulphonic acid (mesylate), ethanesulphonic acid (esylate) or p-toluenesulphonic acid (tosylate). The individual salts were dispersed in a 0.5% methocel suspension to a final concentration of 1 mg base eq./ml. The formulations were stored at room temperature.
(§2) Administration was oral by gastric intubation: 10 ml/kg to obtain a dose of 10 mg base eq./kg.
(§3) Blood samples were collected 30 min, 1, 2, 4, 7 and 24 h after dose administration.
(§4) Blood was collected by multiple sampling from a tail vein into Multivette® 600 K3E tubes (Sarstedt). Samples were placed immediately on melting ice and plasma was obtained following centrifugation at 4° C. for 10 minutes at approximately 1900×g. All samples were shielded from daylight and stored at ≦−18° C. prior to analysis.
(§5) A limited pharmacokinetic analysis was performed using WinNonlin™ Professional (Version 5.1). A non-compartmental analysis using the lin/log trapezoidal rule with lin/log interpolation was used for all data.
Series [3] in a line: Water solubility of salts of compound (I). The class given is physicochemical. The following applies: 24 hours at 20° C.; for Measured pH: saturated solution in water; for Solubility: water, UV spectrometry. On the procedure: An excess of different salts of compound (I) was agitated with water during 24 hours at 20° C. Following filtration, the concentration of compound (I) in the solution was determined by UV spectrometry.

The nature of series [4]: Slurry conversions on Form III and Form III/hydrate (XRPD). The class given is physicochemical. The arrangement: key: Form III; hydrate. On the procedure:
20 mg Form III with 0.25 ml solvent (2-propanol; or 2-propanone/water (8/2, v/v); or methanol/water (8/2, v/v)) was deposited in a vial. For each solvent, 3 vials were prepared and stored each at different temperatures (4° C., RT, 40° C.) for two days. After storage, the slurry was spread on a paper filter, the solid fractions were collected and dried 2 hours at RT. In a further experiment, the Form III was seeded with the hydrate using methanol/water (8/2, v/v) as the solvent. The polymorphic composition was measured using XRPD.

Series [5] can be described thus: Aqueous solubility of Forms I, III and hydrate at different pH. The class given is physicochemical. As for the experimental part:
Solubility of polymorph Forms I and III and the hydrate form of the compound of formula (I) was tested in aqueous conditions at different pH values.

A short description of series [6]: Thermal conversions in DSC oven (XRPD). The class given is physicochemical. On the procedure:
Form III or hydrate form were thermally treated in a DSC oven (heating rate 10° C./min) up to selected temperatures (isotherm for 1 min) using an open sample pan. The selected temperatures are for Form III: 110° C. and 170° C.; and for hydrate form: 70° C., 110° C. and 170° C. The polymorphic composition of the obtained fractions was measured by XRPD. Table 12 summarises XRPD patterns in DSC treated Form III. Table 13 summarises XRPD patterns in DSC treated hydrate

The conditions of series [7]: rat, in vivo, po.
Protocol: as §1, §2, §3, §4, §5

As to `Cc1ccc(S(=O)(=O)O)cc1.Cn1cc(-c2ccc3nnc(C(F)(F)c4ccc5ncccc5c4)n3n2)cn1` [tosylate salt], in series [1], the Hygroscopicity entry was “non-hygroscopic”. Besides, in series [1] (depending on the atmospheric humidity), the Water adsorbed entry is on record as “up to 0.2%”. In addition, the “Plasma concentration, Mean ± SD” value in series [2] (0.5 hours, 0.5% methocel suspension (LLOQ given in ng/ml)) is 2193 ± 1031. The “Plasma concentration, Mean ± SD” value in series [2] (1 hour) was found to be 2998 ± 1349. Besides, in series [2] (2 hours), the “Plasma concentration, Mean ± SD” value stood at 3274 ± 995. Further, in series [2] (4 hours), the “Plasma concentration, Mean ± SD” value is given as 2512 ± 960. For the same molecule, in series [2] (7 hours), the “Plasma concentration, Mean ± SD” value was 1625 ± 537. In addition, in series [2] (24 hours), the “Plasma concentration, Mean ± SD” value is on record as 47.9 ± 24.0. Further, in series [2] (Mean ± SD), the AUC0-24 h was 24307 ± 7457 ng·h/mL, the AUC0-inf stood at 24558 ± 7503 ng·h/mL, the Cmax is 3380 ± 944 ng/mL and the time of peak concentration (Tmax) stood at 2.0 ± 1.2 h. Besides, the “t1/2 (4-24 h)” value in series [2] (Mean ± SD) is recorded as 3.4 ± 0.6 h. In addition, in series [3], the “Measured pH” value was “pH = 2.1” and the Solubility came to 0.023 g/100 ml H2O.
Take `Cn1cc(-c2ccc3nnc(C(F)(F)c4ccc5ncccc5c4)n3n2)cn1` [Form III, 6-{difluoro[6-(1-methyl-1H-pyrazol-4-yl)[1,2,4]triazolo[4,3-b]pyridazin-3-yl]methyl}quinoline]: the “Polymorphic composition (XRPD) after slurry” value is “III” in series [4] (2-propanol, 4° C., two days); “III” in series [4] (2-propanol, 40° C., two days); “III” in series [4] (2-propanol, RT, two days); “hy” in series [4] (2-propanone/water (8/2, v/v), 4° C., two days); “hy” in series [4] (2-propanone/water (8/2, v/v), 40° C., two days); “hy” in series [4] (2-propanone/water (8/2, v/v), RT, two days). Moreover, the “Polymorphic composition (XRPD) after slurry” value in series [4] (methanol/water (8/2, v/v) containing hydrate seeds, 4° C.) is “III”; in series [4] (methanol/water (8/2, v/v) containing hydrate seeds, 40° C.), “III”; in series [4] (methanol/water (8/2, v/v) containing hydrate seeds, RT), “III”; in series [4] (methanol/water (8/2, v/v), 4° C., two days), “III”; in series [4] (methanol/water (8/2, v/v), 40° C., two days), “III”; in series [4] (methanol/water (8/2, v/v), RT, two days), “III”. Moreover, the Solubility in series [5] (0.01 HCl) worked out at 78 µg/mL (≈ 207 µM); in series [5] (0.1 HCl) it was 970 µg/mL (≈ 2570 µM); in series [5] (pH2), 130 µg/mL (≈ 345 µM); in series [5] (pH4) it was 3 µg/mL (≈ 7.95 µM); in series [5] (pH6), 1 µg/mL (≈ 2.65 µM); in series [5] (pH8) it was 1 µg/mL (≈ 2.65 µM). Also, the Solubility in series [5] (pH10) worked out at 2 µg/mL (≈ 5.3 µM). Moreover, the XRPD measured composition entry is reported as “Form III” in series [6] (DSC treated Form III, up to 110° C.); “Form I” in series [6] (DSC treated Form III, up to 170° C.); “Form III” in series [6] (starting Form III).
As for `CS(=O)(=O)O.Cn1cc(-c2ccc3nnc(C(F)(F)c4ccc5ncccc5c4)n3n2)cn1` [mesylate salt], the Hygroscopicity entry in series [1] is “hygroscopic”. Further, the Water adsorbed result in series [1] (at high relative humidity) was “up to 4.5%”. Further, in series [7], the time of peak concentration (Tmax) was 1.2 ± 0.4 h and the “t1/2 (4-24 h)” value came to 3.7 ± 0.6 h. Besides, in series [3], the “Measured pH” value was “pH = 1.9” and the Solubility was 0.047 g/100 ml H2O.
With `CCS(=O)(=O)O.Cn1cc(-c2ccc3nnc(C(F)(F)c4ccc5ncccc5c4)n3n2)cn1` [esylate salt], in series [1], the Hygroscopicity entry is reported as “hygroscopic”. In addition, in series [1] (at high relative humidity), the Water adsorbed result was “up to 34%”. Further, in series [7], the time of peak concentration (Tmax) turned out to be 1.6 ± 0.5 h and the “t1/2 (4-24 h)” value was determined as 3.3 ± 0.4 h. Besides, in series [3], the “Measured pH” value is reported as “pH = 2.1” and the Solubility is on record as 0.025 g/100 ml H2O.

Usually Cmax stands for the highest concentration seen after dosing. The Tmax is the time at which the peak concentration occurs.
